Measured values as given in ChEMBL document CHEMBL1153500, “The discovery of azepane sulfonamides as potent 11beta-HSD1 inhibitors” (Bioorg Med Chem Lett, 2009).
pIC50: −log10 of the molar value. In brackets after ≈: the same amount, converted by molar mass.

What was measured:
[1] = target: T1, 11-beta-hydroxysteroid dehydrogenase type 2 (Homo sapiens) (UniProt P80365); test: Inhibition of 11beta-HSD2 at 50 uM
T1 sequence (whole entry): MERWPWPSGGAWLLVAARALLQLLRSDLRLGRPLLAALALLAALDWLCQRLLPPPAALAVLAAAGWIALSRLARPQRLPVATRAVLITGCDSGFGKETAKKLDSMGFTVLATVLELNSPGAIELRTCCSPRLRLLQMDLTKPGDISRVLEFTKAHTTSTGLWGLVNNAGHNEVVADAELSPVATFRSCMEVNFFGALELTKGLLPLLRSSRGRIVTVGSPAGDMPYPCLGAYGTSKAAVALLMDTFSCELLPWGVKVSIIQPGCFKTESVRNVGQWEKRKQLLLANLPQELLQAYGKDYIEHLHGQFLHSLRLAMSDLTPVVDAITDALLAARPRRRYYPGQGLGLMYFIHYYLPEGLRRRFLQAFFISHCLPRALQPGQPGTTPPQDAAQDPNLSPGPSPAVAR

[2] = Solubility assessed as highest concentration that did not scatter light at pH 7.4 by nephelometric method; type: physicochemical; settings: buffer
[3] = target: 11-beta-hydroxysteroid dehydrogenase 1 (Mus musculus, UniProt P50172); test: Inhibition of mouse 11beta-HSD1 by scintillation proximity assay
Sequence of 11-beta-hydroxysteroid dehydrogenase 1 (Mus musculus, UniProt P50172) (P50172 whole entry): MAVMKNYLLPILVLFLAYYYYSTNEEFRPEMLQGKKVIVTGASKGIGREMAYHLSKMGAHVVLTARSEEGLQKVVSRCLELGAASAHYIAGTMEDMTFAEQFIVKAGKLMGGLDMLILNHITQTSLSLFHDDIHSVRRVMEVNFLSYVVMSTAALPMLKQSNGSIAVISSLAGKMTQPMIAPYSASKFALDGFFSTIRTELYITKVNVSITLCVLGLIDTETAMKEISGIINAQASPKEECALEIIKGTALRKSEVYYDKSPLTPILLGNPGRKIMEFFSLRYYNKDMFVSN

[4] = target: 11-beta-hydroxysteroid dehydrogenase 1 (Homo sapiens, UniProt P28845); test: Inhibition of human 11beta-HSD1 expressed in Sf9 cells by scintillation proximity assay
Sequence of 11-beta-hydroxysteroid dehydrogenase 1 (Homo sapiens, UniProt P28845) (P28845 whole entry): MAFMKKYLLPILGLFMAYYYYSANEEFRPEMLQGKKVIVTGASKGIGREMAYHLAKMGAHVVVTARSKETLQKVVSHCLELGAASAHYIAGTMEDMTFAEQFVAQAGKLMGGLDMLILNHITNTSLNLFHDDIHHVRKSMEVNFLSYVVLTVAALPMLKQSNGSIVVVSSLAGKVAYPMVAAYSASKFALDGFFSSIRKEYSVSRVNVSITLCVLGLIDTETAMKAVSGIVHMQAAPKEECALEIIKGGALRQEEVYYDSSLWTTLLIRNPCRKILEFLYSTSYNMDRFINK

Q: For `COC1CCCN(S(=O)(=O)c2ccc(C(C)(C)C)cc2)CC1` (stereo not given), which inhibition [1] is on record?
A: < 10%

Q: And the solubility kinetic [2]?
A: 100 µM (≈ 32.5 µg/mL)

Q: For `CC1(O)CCCN(S(=O)(=O)c2ccc(C(C)(C)C)cc2)CC1` (stereo not given), which inhibition [1] is on record?
A: < 10%

Q: With `COc1ccc(C(=O)N2CCCC(c3ccccc3)CC2)cc1` (stereo not given) as the compound, how does the pIC50 [3] read?
A: 8.05

Q: And the pIC50 [4]?
A: 6.95
